Reference: article PMC13108699, “Mass balance and metabolite profiling of ^14C-Zalunfiban in humans following single-dose subcutaneous administration” (Xenobiotica; the fate of foreign compounds in biological …, 2025)

Assay: Metabolite profiling of pooled whole blood, urine and faeces by LC radiochromatograms with AMS
Type: in vivo, human
Experimental: For metabolite profiling in whole blood, urine, and faeces, LC-MS/MS followed by AMS was used. The HPLC system included a 1290 Infinity Sampler, Binary Pump, and thermostat (Agilent, UK). The chromatographic method used an aqueous formic acid (MPA)/ammonium acetate:acetonitrile:methanol (MPB) gradient and a Scherzo SS-C18 HPLC column at a temperature of 40 °C with injection volumes of 50–200 microliters. The gradient was set at 90% MAP and 10% MPB. The mass spectrometer was a Q-Exactive system (Thermo Fisher Scientific, UK) and the AMS a single stage NEC SSAMS-250.
Single whole blood, faeces, and urine pools were created across subjects and radioactive regions representing 10% or more of the circulating radioactivity were analysed (e.g. 10% or more of the circulating radioactivity in whole blood or accounting for 10% or more of the administered radioactivity/dose in urine and faeces), To create the pool, an individual subject AUC pool was prepared, and a constant proportion of each subject pool was taken to create one cross-subject pool. The whole blood sample pool included samples from hours 0–144, the urine sample pool included samples from hours 0–48, and the faeces pool from hours 0–192.
Whole blood, faeces, and urine radiochromatograms were generated for each sample by collecting HPLC fractions at intervals of 2 (30 s) or 4 (15 s) per minute over the run time of 110 min.
Radiochromatograms were generated from AMS data using the LAURA V6 software (LabLogic, Sheffield, UK). Regions of interest were quantified and provisionally identified where possible by assignment of observed peaks in each radiochromatogram to either parent zalunfiban or M1 by retention time matching, with corresponding ^12C-reference standards obtained via LC-UV.
Assignment of parent and metabolites was made by matching retention times with synthesised standards at wavelengths of 210, 230, 254, 270, and 300 nm, using liquid chromatography ultraviolet chromatography (LC-UV).
For extraction of ^14C-zalunfiban from whole blood, weighed aliquots in microcentrifuge tubes were processed with vortex mixing and centrifugation. The supernatant was then harvested and the process repeated with the bullet material in the original tube using acetonitrile and then methanol. The combined aliquots then underwent AMS analysis to determine the extraction recovery. Once optimised, the final combined supernatant was dried under N2 gas at 40 °C and reconstituted with 1 mL methanol:water (20:80, v/v), with vortex mixing and sonication. This was followed by analysis by LC. The radioactivity extraction recovery for whole blood (AUC0–144h) was 54.5%,
For extraction of ^14C-zalunfiban from homogenised faeces, weighed aliquots in microcentrifuge tubes were processed with vortex mixing and centrifugation, and then diluted with acetonitrile, followed by additional mixing, centrifugation, and repeat extraction with methanol:water until optimised. Once optimised, the final combined supernatant was dried under N2 gas at 40 °C and reconstituted with methanol, followed by water, followed by vortex mixing, followed by analysis by LC. The radioactivity extraction recovery for faeces (0–192 h) was 100%.
Urine was not subjected to extraction. An aliquot was dispensed into an LC vial prior to analysis.

SMILES: NCC(=O)Nc1cncc(-c2nn3c(=O)cc(N4CCNCC4)nc3s2)c1 [Zalunfiban, 2-amino-N-{5-[5-oxo-7-(piperazin-1-yl)-5H-[1,3,4]thia-diazolo[3,2-a]pyrimidin-2-yl]pyridin-3-yl}acetamide]
- Percentage of dose excreted in urine (0–48 h): 1.31%
- Percentage of total radioactivity in urine (0–48 h cross-participant pooled sample): 1.59%
- Percentage of dose excreted in faeces (0–192 h): 0.0239%
- Percentage of total radioactivity in faeces (0–192 h pooled sample): 0.173%
- Percentage of total circulating radioactivity in whole blood (AUC0–144 cross-pooled whole blood extract): 46.9%
